The target of one assay is D2 receptor (Rattus norvegicus, UniProt P61169). In words: biochemical. The conditions noted are these: [3H]-domperidone 0.3 nM, rat striated membranes, 0.01% BSA, 37° C., 30 minutes; read-out: Affinity [K1 (nM)] towards D2 receptor. It counts as binding, rat (Sprague-Dawley). Here is the method:
(§1) The tissue were homogenized in 50 mM Tris/HCl buffer at pH 7.4 (1:100 w/v).
(§2) The homogenate was centrifuged and the pellet resuspended, recentrifuged and resuspended again in 50 mM Tris/HCl buffer at pH 7.4 containing 120 mM NaCl, 5 mM KCl, 2 mM CaCl2 and 1 mM MgCl2.
Furthermore, bovine serum albumine (BSA) (0.01%) was added.
The mixture was incubated at 37° C. for 30 minutes for each concentration of tested compounds.

The next assay concerns the target D1 receptor (Rattus norvegicus, UniProt P18901). In words: biochemical. The class given is binding, rat (Sprague-Dawley). The conditions noted are these: [3H]-SCH23390 0.2 nM, rat striated membranes, pH 7.4, 37° C., 20 minutes; read-out: Affinity [K1 (nM)] towards D1 receptor. Here is the method:
as §1, §2
The mixture was incubated with different concentrations of the tested compounds at 37° C. for 20 minutes, filtered under vacuum through Whatman GF/C filters and then washed 4 times with 5 ml of 50 mM Tris/HCl buffer (pH 7.4) cooled with ice.

The target of assay [1] is T1, D2 -like (Rabbit Ear Artery) (Oryctolagus cuniculus, UniProt G1T1Q0).
T1 construct: the central ear artery was dissected into 3 mm long rings; from tissue; host or cells: rabbit central ear artery rings (male New Zealand rabbits), electrically stimulated
As to the kind of experiment: D2-like activity in the Rabbit Ear Artery (REA) test. Also on record: species or system New Zealand rabbit. The settings on record: agonist activity at the peak of the effect; electrically stimulated. The protocol:
Arterial rings were prepared according to the method described by Steinsland et al., Science, 1978, 443, 199, modified as follows. Male New Zealand rabbits weighing 2.5-3 Kg were sacrificed by intravenous injection of an excess of pentobarbital sodium and exsanguinated. The two ears were taken away and the central ear artery was dissected into 3 mm long rings.
These preparations were set up in a 25 ml organ bath containing Krebs solution (mM/l): NaCl 118, KCl 4.7, CaCl2 2.5, MgSO4 1.2, NaHCO3 25, KH2 PO4 1.2, glucose 11.1, equilibrated with 95% 02 -5% CO2 and maintained at 35°±1° C.
Krebs solution was medicated with EDTA (10 μM) to prevent cathecolamine oxydation, desipramine (0.1 μM) and corticosterone (30 μM), to block neuronal and extraneuronal cathecolamine uptake. The preparations were electrically stimulated (10 Hz, 1 msec, 40-80 mA, 500 msec duration) at 5 minutes intervals.
(§3) The tested compounds were cumulatively administered.
(§4) Ref. A was used as reference substance.
(§5) Agonist activity evaluated at the peak of the effect and expressed as potency ratio (EC50 of Ref. A/EC50 of tested compound) is reported in table 2.

Assay [2] relates to D1 -like (Rabbit Splenic Artery). As to the kind of experiment: D1-like activity in the Rabbit Splenic Artery (RSA) test. The conditions noted are these: agonist activity at the peak of the effect; contracted with U46619 0.1 μM. The protocol:
Arterial rings were prepared according to Semeraro et al., Naunyn. Schmied. Arch. Pharmacol., 1990, 342, 539.
The arterial preparations were contracted with U46619 (9,11-di-deoxy-11α,9α-epoxy-methanoprostaglandin F2α) at the submaximal concentration 0.1 μM.
as §3, §4, §5

Counter-ions that a name gives are not always drawn.

T1 sequence (G1T1Q0 1-443): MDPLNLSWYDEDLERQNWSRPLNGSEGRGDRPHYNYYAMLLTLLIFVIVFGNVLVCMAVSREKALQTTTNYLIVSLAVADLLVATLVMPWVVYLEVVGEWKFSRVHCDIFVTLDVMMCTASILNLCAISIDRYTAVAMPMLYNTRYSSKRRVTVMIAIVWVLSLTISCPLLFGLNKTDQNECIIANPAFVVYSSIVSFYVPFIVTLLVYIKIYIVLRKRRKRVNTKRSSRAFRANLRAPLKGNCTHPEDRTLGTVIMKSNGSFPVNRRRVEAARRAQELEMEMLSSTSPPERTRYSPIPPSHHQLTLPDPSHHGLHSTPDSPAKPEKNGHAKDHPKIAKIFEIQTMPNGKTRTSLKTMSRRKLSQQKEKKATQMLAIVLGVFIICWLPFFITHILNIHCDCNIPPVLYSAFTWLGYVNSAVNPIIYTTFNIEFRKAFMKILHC
D2 receptor, sequence (P61169 whole entry): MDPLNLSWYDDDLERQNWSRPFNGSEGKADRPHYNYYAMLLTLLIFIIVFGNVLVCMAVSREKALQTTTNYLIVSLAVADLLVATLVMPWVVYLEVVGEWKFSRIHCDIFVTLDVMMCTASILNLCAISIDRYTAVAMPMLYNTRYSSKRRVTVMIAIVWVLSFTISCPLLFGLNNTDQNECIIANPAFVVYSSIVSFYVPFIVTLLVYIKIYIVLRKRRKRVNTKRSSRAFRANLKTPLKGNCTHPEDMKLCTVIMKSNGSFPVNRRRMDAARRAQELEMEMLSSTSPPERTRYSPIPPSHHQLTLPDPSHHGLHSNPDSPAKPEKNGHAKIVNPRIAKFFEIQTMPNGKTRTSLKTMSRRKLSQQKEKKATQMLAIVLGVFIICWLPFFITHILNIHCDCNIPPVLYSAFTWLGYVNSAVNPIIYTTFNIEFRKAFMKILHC
D1 receptor, sequence (P18901 whole entry): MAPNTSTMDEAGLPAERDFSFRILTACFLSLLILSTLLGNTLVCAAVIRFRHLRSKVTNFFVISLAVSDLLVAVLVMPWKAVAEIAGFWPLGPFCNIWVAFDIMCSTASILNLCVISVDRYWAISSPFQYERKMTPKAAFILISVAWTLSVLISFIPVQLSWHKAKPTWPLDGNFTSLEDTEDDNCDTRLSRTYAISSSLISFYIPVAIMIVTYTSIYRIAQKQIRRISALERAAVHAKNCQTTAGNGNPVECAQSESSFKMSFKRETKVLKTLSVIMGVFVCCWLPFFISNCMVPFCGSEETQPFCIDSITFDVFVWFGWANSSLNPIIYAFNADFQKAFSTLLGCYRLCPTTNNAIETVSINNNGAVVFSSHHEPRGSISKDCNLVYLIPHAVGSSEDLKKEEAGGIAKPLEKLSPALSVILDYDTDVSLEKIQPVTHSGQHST

As to `CCCN(CCCCCCNCC1COc2ccccc2O1)[C@H]1CCc2c(ccc(O)c2O)C1` (stereo partly drawn) [Compound 1, (S)-N-propyl-N-[6-[(1,4-benzodioxan-2-yl)methylamino]hexyl]-5,6-dihydroxy-1,2,3,4-tetrahydro-2-naphthylamine dihydrochloride], the Ki at D2 receptor came to 0.66 nM; on D1 receptor, 49 nM.

With `CCCN(CCCCCCNCCc1ccc2c(c1)OCO2)[C@H]1CCc2c(ccc(O)c2O)C1.Cl.Cl` [Compound 2, (S)-N-propyl-N-[6-[2-(3,4-methylendioxyphenyl)ethylamino]hexyl]-5,6-dihydroxy-1,2,3,4-tetrahydro-2-naphthylamine dihydrochloride], the figures for the Ki on D2 receptor and at D1 receptor were 0.4 nM and 25 nM, respectively. In assay [1], the “D2 -like (REA) potency ratio (EC50 of Ref. A/EC50 of tested compound)” value (“D2 -like (REA) potency ratio” for short) is 0.3. The “D1 -like (RSA) potency ratio (EC50 of Ref. A/EC50 of tested compound)” value (shortened to “D1 -like (RSA) potency ratio”) in assay [2] was found to be 10.

With `CCCN(CCCCCCN1CCN(c2ccccc2OC)CC1)[C@H]1CCc2c(ccc(O)c2O)C1` [Compound 3, (S)-N-propyl-N-[6-[4-(2-methoxyphenyl)piperazin-1-yl]hexyl]-5,6-dihydroxy-1,2,3,4-tetrahydro-2-naphthylamine trihydrochloride], the figures for the Ki on D2 receptor and at D1 receptor were 0.31 nM and 69 nM, respectively.

For the compound `CCCN(CCCCCCNCCOc1ccccc1[N+](=O)[O-])[C@H]1CCc2c(ccc(O)c2O)C1` [Compound 4, (S)-N-propyl-N-[6-[2-(2-nitrophenoxy)ethylamino]hexyl]-5,6-dihydroxy-1,2,3,4-tetrahydro-2-naphthylamine dihydrochloride], the values for the Ki at D2 receptor and at D1 receptor were 1.1 nM and 78 nM, respectively.

Consider `CCCN(CCCCCCNCCOc1ccc([N+](=O)[O-])cc1)[C@H]1CCc2c(ccc(O)c2O)C1` [Compound 5, (S)-N-propyl-N-[6-[2-(4-nitrophenoxy)ethylamino]hexyl]-5,6-dihydroxy-1,2,3,4-tetrahydro-2-naphthylamine dihydrochloride], for which the Ki on D2 receptor was 1.5 nM; at D1 receptor it was 69 nM.

For the compound `CCCN(CCCCCCNCCOc1ccc(S(C)(=O)=O)cc1)[C@H]1CCc2c(ccc(O)c2O)C1.Cl.Cl` [Compound 6, (S)-N-propyl-N-[6-[2-(4-methylsulphonylphenoxy)ethylamino]hexyl]-5,6-dihydroxy-1,2,3,4-tetrahydro-2-naphthylamine dihydrochloride], the Ki on D2 receptor amounted to 1.3 nM; at D1 receptor, 81 nM. Further, the “D2 -like (REA) potency ratio” value in assay [1] is listed as 3. Besides, in assay [2], the “D1 -like (RSA) potency ratio” value is on record as 10.

Consider `CCCN(CCCCCCNC(=O)COc1ccccc1OC)[C@H]1CCc2c(ccc(O)c2O)C1` [Compound 7, (S)-N-propyl-N-[6-[(2-methoxyphenoxy)acetylamino]hexyl]-5,6-dihydroxy-1,2,3,4-tetrahydro-2-naphthylamine hydrochloride], for which the Ki at D2 receptor stood at 0.25 nM; on D1 receptor, 370 nM.

Turning to `Br.Br.CCCN(CCCCCCNCCSc1ccc(O)cc1)[C@H]1CCc2c(ccc(O)c2O)C1` [Compound 8, (S)-N-propyl-N-[6-[2-(4-hydroxyphenylthio)ethylamino]hexyl]-5,6-dihydroxy-1,2,3,4-tetrahydro-2-naphthylamine dihydrobromide], the Ki was found to be 0.1 nM at D2 receptor and 23 nM on D1 receptor. Besides, the “D2 -like (REA) potency ratio” value in assay [1] is 1.7. The “D1 -like (RSA) potency ratio” value in assay [2] came to 1.

With `Br.Br.CCCN(CCCCCCNCCCc1ccc(O)cc1)[C@H]1CCc2c(ccc(O)c2O)C1` [Compound 9, (S)-N-propyl-N-[6-[3-(4-hydroxyphenyl)propylamino]hexyl]-5,6-dihydroxy-1,2,3,4-tetrahydro-2-naphthylamine dihydrobromide], the Ki on D2 receptor is 0.15 nM; at D1 receptor, 22 nM. For the same compound, the “D2 -like (REA) potency ratio” value in assay [1] was 5. Moreover, in assay [2], the “D1 -like (RSA) potency ratio” value was found to be 10.

In the case of `Br.Br.CCCN(CCCCCCN1CCc2cc(O)c(O)cc2C1)[C@H]1CCc2c(ccc(O)c2O)C1` [Compound 10, (S)-N-propyl-N-[6-(6,7-dihydroxy-1,2,3,4-tetrahydroisoquinolin-2-yl)hexyl]-5,6-dihydroxy-1,2,3,4-tetrahydro-2-naphthylamine dihydrobromide], the Ki was 0.6 nM at D2 receptor and 117 nM on D1 receptor. Further, in assay [1], the “D2 -like (REA) potency ratio” value is reported as 2. For the same compound, in assay [2], the “D1 -like (RSA) potency ratio” value is 1.4.

In the case of `Br.Br.CCCN(CCCCCCNCCCc1ccc(O)c(O)c1)[C@H]1CCc2c(ccc(O)c2O)C1` [Compound 13, (S)-N-propyl-N-[6-[3-(3,4-dihydroxyphenyl)propylamino]hexyl]-5,6-dihydroxy-1,2,3,4-tetrahydro-2-naphthylamine dihydrobromide], the Ki on D2 receptor came out at 0.4 nM; on D1 receptor, 29 nM. The “D2 -like (REA) potency ratio” value in assay [1] was 14. For the same compound, in assay [2], the “D1 -like (RSA) potency ratio” value was 10.

For the compound `Br.Br.Br.CCCN(CCCCCCN1CCN(Cc2ccc(O)cc2)CC1)[C@H]1CCc2c(ccc(O)c2O)C1` [Compound 15, (S)-N-propyl-N-[6-[4-(4-hydroxyphenylmethyl)piperazin-1-yl]hexyl]-5,6-dihydroxy-1,2,3,4-tetrahydro-2-naphthylamine trihydrobromide], the values for the Ki on D2 receptor and on D1 receptor were 0.24 nM and 119 nM, respectively. In assay [1], the “D2 -like (REA) potency ratio” value came out at 0.5. Further, in assay [2], the “D1 -like (RSA) potency ratio” value was 0.9.

For `Br.Br.CCCN(CCCCCCNCCCc1ccccc1O)[C@H]1CCc2c(ccc(O)c2O)C1` [Compound 16, (S)-N-propyl-N-[6-[3-(2-hydroxyphenyl)propylamino]hexyl]-5,6-dihydroxy-1,2,3,4-tetrahydro-2-naphthylamine dihydrobromide], the Ki at D2 receptor came to 0.2 nM; at D1 receptor, 178 nM. The “D2 -like (REA) potency ratio” value in assay [1] is listed as 0.8. Besides, the “D1 -like (RSA) potency ratio” value in assay [2] stood at 3.

For `CCCN(CCCCCCNCCOc1ccc(O)cc1)[C@H]1CCc2c(ccc(O)c2O)C1.Cl.Cl` [Compound 24, (S)-N-propyl-N-[6-[2-(4-hydroxyphenoxy)ethylamino]hexyl]-5,6-dihydroxy-1,2,3,4-tetrahydro-2-naphthylamine dihydrochloride], the values for the Ki at D2 receptor and at D1 receptor were 1.8 nM and 45 nM, respectively. In addition, the “D2 -like (REA) potency ratio” value in assay [1] stood at 3. Further, the “D1 -like (RSA) potency ratio” value in assay [2] worked out at 17.

In the case of `CCCN(CCCCCCOCCc1ccc(O)c(O)c1)[C@H]1CCc2c(ccc(O)c2O)C1.Cl` [Compound 25, (S)-N-propyl-N-[6-[2-(3,4-dihydroxyphenyl)ethoxy]hexyl]-5,6-dihydroxy-1,2,3,4-tetrahydro-2-naphthylamine hydrochloride], the Ki was 0.6 nM at D2 receptor and 130 nM at D1 receptor. For the same compound, in assay [1], the “D2 -like (REA) potency ratio” value worked out at 1.3. Moreover, the “D1 -like (RSA) potency ratio” value in assay [2] was determined as 1.7.

For the compound `Br.CCCN(CCCCCCNC(=O)Cc1ccc(O)c(O)c1)[C@H]1CCc2c(ccc(O)c2O)C1` [Compound 34, (S)-N-propyl-N-[6-[(3,4-dihydroxyphenyl)acetylamino]hexyl]-5,6-dihydroxy-1,2,3,4-tetrahydro-2-naphthylamine hydrobromide], the Ki on D2 receptor turned out to be 2.1 nM; at D1 receptor it was 356 nM. Further, the “D2 -like (REA) potency ratio” value in assay [1] stood at 5. Besides, the “D1 -like (RSA) potency ratio” value in assay [2] stood at 2.5.
